Measured values reported in PMC12595434, “Development of retinoid nuclear receptor pathway antagonists through targeting aldehyde dehydrogenase 1A3” (iScience, 2025).

Assays:
NPTN = assay: Cellular thermal shift assay (CETSA) in A375 cells; format: cell-based, human; details: 100 nM, 1h at 37°C
Experimental: CETSA was performed according to protocols described before.[85] Briefly, 6 × 10cm dishes of A375 cells were collected and treated with 100 nM MBE1 or 0.1% DMSO for 1h at 37°C. Afterward, cells were pelleted through centrifugation at 300g for 5 min. Cells were then washed with ice-cold PBS and resuspended in 800 μL of PBS. Cell suspension was aliquoted to 7xPCR tubes with 100 μL each and subjected to thermal denaturation at 46.3, 48.6, 52.2, 56.5, 60.1, 62.5, 64.0°C for 3 min. The resulting sample was snap frozen in liquid nitrogen followed by incubation at room temperature until fully thawed. This procedure was performed twice followed by brief vortexing and mixing to release soluble proteins from the cells. Samples were then transferred to 1.5 mL Eppendorf tubes and centrifuged at 20,000g for 20 min at 4°C, 90 μL of the resulting supernatant was collected into another new 1.5 mL Eppendorf tube and subjected to protein analysis by western blot (WB). NPTN (proteintech #28022-1-AP) and ALDH1A3 (abcam #ab129815) were used to detect target proteins while GelCode Blue Stain Reagent (Thermofisher scientific #24590) was used to stain for total proteins loaded in the WB analysis.

op-mu = op-mu (Homo sapiens, UniProt P35372); assay: Off-target profiling panel; format: binding; details: read-out: Inhibition by MBE1 at 10 μM (%)
DAT = DAT (Homo sapiens, UniProt Q01959); assay: Off-target profiling panel; format: binding; details: read-out: Inhibition by MBE1 at 10 μM (%)
MARCKSL1 = biological target: T1, MARCKSL1 (Homo sapiens, UniProt P49006); assay: Thermal proteome profiling (TPP) in A375 cells; format: cell-based; details: MARCKSL1, 1 uM
T1 construct: Treated A375 cells were harvested from 10 × 15 cm plates; endogenous in cells; host or cells: A375 melanoma cells

ALDH1A3 = biological target: T2, ALDH1A3 (Homo sapiens, UniProt P47895); assay: Thermal proteome profiling (TPP) in A375 cells; format: cell-based; set-up: endogenous in cells; host or cells: A375 cells; details: 100 nM and 1 μM MBE1, A375 cells
T2 sequence (P47895 1-512): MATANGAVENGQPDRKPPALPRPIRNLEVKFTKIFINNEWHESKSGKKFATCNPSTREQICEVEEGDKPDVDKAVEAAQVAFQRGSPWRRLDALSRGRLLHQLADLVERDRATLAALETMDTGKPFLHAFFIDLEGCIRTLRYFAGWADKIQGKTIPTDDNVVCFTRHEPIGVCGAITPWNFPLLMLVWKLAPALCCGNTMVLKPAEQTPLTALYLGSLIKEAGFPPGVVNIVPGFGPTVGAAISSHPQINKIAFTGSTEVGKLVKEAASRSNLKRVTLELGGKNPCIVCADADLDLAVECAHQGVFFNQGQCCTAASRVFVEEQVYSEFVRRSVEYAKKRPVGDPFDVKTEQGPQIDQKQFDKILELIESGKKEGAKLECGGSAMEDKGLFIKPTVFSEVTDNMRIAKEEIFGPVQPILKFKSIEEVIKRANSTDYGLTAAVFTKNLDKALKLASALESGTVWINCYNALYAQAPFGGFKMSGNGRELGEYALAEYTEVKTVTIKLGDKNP

5HT2B = 5HT2B (Homo sapiens, UniProt P41595); assay: Off-target profiling panel; format: binding; details: read-out: Inhibition by MBE1 at 10 μM (%)
H2 = H2 (Homo sapiens, UniProt P25021); assay: Off-target profiling panel; format: binding; details: read-out: Inhibition by MBE1 at 10 μM (%)
hKCNQ1 = hKCNQ1 (Homo sapiens, UniProt P51787); assay: Off-target profiling panel; format: cell-based; details: read-out: Inhibition by MBE1 at 10 μM (%)
C19orf66 = biological target: T3, C19orf66 (Homo sapiens, UniProt Q9NUL5); assay: Thermal proteome profiling (TPP) in A375 cells; format: cell-based; details: C19orf66, 1 uM
T3 construct: Treated A375 cells were harvested from 10 × 15 cm plates; endogenous in cells; host or cells: A375 melanoma cells

5HT3 = 5HT3 (Homo sapiens, UniProt P46098); assay: Off-target profiling panel; format: binding; details: read-out: Inhibition by MBE1 at 10 μM (%)
op-delta = op-delta (Homo sapiens, UniProt P41143); assay: Off-target profiling panel; format: binding; details: read-out: Inhibition by MBE1 at 10 μM (%)
Beta2 = Beta2 (Homo sapiens, UniProt P07550); assay: Off-target profiling panel; format: binding; details: read-out: Inhibition by MBE1 at 10 μM (%)
Eta antagonist = Eta antagonist (Homo sapiens, UniProt P25101); assay: Off-target profiling panel; format: cell-based; details: read-out: Inhibition by MBE1 at 10 μM (%)
Eta antagonist, sequence (P25101 21-427): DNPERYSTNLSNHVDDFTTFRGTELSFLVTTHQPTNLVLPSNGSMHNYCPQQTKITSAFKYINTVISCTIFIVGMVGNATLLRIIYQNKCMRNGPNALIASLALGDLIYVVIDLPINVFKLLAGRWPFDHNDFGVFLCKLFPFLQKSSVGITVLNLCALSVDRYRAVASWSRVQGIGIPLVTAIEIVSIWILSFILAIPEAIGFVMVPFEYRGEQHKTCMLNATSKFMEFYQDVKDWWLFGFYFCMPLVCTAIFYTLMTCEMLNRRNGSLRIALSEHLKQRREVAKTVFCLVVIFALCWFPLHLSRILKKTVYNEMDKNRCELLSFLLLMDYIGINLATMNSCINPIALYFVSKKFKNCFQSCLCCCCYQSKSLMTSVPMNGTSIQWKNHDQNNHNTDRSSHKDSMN

T3 sequence (Q9NUL5 whole entry): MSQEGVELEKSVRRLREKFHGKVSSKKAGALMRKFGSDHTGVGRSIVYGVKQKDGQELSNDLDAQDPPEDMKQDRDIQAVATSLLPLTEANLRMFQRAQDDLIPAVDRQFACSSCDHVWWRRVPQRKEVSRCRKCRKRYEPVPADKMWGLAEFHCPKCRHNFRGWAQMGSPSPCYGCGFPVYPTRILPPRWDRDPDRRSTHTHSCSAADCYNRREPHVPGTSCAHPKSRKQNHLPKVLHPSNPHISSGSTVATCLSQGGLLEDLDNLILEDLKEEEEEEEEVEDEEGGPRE
DAT, sequence (Q01959 whole entry): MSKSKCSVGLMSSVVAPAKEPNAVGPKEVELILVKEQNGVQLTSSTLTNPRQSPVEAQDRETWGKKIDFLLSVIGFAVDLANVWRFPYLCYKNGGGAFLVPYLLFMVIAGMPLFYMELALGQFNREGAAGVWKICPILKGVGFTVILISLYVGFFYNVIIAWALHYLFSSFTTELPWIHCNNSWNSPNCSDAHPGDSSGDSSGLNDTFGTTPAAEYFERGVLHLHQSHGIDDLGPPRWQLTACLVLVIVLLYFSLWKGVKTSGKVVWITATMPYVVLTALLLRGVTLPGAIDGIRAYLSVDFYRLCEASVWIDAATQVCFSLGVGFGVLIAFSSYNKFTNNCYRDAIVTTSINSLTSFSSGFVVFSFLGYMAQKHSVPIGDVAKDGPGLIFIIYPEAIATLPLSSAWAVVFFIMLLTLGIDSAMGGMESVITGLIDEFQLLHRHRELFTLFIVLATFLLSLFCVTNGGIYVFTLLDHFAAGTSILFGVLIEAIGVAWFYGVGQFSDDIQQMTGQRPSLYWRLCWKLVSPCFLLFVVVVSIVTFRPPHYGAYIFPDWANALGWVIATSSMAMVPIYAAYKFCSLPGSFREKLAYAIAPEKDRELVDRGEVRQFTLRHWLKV
5HT3, sequence (P46098 24-478): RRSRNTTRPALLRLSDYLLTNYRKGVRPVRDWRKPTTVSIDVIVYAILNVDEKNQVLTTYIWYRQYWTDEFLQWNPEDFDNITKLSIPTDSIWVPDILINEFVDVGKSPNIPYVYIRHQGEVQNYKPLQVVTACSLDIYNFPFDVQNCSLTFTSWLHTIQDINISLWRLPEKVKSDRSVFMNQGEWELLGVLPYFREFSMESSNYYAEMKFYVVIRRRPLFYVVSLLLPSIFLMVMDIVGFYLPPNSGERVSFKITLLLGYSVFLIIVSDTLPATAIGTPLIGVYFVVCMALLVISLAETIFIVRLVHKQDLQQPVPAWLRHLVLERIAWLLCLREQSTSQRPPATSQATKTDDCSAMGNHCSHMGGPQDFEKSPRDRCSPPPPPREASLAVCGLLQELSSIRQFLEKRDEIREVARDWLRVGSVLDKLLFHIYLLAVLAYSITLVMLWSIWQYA
op-mu, sequence (P35372 whole entry): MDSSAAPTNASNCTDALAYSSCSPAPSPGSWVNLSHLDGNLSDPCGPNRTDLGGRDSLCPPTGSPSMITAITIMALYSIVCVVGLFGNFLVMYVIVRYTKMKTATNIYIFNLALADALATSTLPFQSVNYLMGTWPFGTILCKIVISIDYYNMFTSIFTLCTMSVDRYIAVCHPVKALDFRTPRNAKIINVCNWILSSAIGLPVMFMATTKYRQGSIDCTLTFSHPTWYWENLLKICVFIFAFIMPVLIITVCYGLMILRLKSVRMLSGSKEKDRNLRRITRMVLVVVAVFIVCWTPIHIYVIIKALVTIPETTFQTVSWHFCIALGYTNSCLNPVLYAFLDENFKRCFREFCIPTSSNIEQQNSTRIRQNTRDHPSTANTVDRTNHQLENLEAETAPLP
H2, sequence (P25021 whole entry): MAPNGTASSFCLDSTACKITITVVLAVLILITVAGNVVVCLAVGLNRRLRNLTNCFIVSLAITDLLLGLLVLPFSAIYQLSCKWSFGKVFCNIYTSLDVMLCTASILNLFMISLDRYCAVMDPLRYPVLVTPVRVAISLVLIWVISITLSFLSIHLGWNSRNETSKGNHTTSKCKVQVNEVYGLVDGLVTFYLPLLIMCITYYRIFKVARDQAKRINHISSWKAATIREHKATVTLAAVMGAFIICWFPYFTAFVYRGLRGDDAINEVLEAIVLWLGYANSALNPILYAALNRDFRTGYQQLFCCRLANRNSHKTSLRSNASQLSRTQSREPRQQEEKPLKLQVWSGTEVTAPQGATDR
Beta2, sequence (P07550 whole entry): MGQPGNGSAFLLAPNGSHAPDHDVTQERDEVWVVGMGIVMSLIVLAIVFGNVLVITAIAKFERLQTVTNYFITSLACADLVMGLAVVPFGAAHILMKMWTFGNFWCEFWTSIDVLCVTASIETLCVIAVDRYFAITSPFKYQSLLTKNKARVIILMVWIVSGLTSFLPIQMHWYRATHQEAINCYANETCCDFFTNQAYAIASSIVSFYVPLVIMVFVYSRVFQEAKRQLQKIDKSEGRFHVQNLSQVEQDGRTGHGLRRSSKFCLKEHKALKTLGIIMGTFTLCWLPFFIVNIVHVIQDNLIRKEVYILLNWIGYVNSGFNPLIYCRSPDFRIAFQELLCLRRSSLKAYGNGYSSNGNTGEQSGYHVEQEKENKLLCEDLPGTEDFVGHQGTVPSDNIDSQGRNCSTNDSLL
5HT2B, sequence (P41595 whole entry): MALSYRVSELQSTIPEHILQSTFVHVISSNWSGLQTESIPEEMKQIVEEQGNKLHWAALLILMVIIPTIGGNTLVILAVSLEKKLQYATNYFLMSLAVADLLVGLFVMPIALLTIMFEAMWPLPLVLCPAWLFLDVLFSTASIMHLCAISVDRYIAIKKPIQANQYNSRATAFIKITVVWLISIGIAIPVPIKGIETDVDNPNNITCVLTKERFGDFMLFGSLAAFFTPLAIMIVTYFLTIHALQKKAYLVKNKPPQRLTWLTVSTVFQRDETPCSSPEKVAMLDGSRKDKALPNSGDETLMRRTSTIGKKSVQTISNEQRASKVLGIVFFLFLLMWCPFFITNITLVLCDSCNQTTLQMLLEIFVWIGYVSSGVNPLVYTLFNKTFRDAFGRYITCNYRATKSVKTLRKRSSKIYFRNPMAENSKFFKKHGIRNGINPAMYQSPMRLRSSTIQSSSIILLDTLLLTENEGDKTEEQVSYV
op-delta, sequence (P41143 whole entry): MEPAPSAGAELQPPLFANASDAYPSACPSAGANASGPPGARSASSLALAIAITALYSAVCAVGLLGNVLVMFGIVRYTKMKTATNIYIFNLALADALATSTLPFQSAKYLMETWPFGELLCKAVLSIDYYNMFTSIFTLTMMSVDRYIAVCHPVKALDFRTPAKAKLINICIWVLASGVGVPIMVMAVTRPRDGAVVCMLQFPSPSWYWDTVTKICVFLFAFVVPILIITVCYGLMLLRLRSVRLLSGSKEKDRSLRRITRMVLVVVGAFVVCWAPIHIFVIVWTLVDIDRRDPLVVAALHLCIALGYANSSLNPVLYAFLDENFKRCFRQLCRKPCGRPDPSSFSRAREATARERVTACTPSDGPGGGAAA
T1 sequence (P49006 whole entry): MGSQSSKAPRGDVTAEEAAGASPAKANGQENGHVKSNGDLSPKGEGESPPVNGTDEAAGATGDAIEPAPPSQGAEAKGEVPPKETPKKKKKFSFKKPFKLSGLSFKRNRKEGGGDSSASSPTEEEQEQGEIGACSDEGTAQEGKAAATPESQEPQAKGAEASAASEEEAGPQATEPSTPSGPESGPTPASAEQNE

For CCc1cnccc1C(=O)Nc1cc2c(cc1F)NC(=O)CC2 [MBE1, 3-ethyl-N-(7-fluoro-2-oxo-3,4-dihydro-1H-quinolin-6-yl)pyridine-4-carboxamide], the “stabilization of NPTN in CETSA (in words)” value (NPTN) was “not stabilized”, the inhibition at 10 µM (op-mu) was 3.98% and the inhibition at 10 µM (DAT) was -13.1%. The “1uM MBE1 Tm” value (MARCKSL1) was 64, the “thermal stabilization of ALDH1A3 in TPP (in words)” value (ALDH1A3) was “stabilized” and the inhibition at 10 µM (5HT2B) was -6.81%. The inhibition at 10 µM (H2) was 4.29%, the inhibition at 10 µM (hKCNQ1) was 11.9% and the “1uM MBE1 Tm” value (C19orf66) was 53.8379. It also gave an inhibition at 10 µM (5HT3) of -18.6%, an inhibition at 10 µM (op-delta) of 5.54% and an inhibition at 10 µM (Beta2) of 3.23%. For the same compound, the inhibition at 10 µM (Eta antagonist) was 4.57%.
